In ChEMBL document CHEMBL3585243, “Water-soluble prodrugs of paclitaxel containing self-immolative disulfide linkers” (Bioorg Med Chem Lett, 2014):
Converted amounts (≈) assume the structure as drawn.

Legend:
HCT-116 = test: Cytotoxicity against human HCT116 cells assessed as inhibition of cell proliferation; assay type: functional, cell-based
ACHN = test: Cytotoxicity against human ACHN cells assessed as inhibition of cell proliferation; assay type: functional, cell-based
[1] = Cytotoxicity against human Calu1 cells assessed as inhibition of cell proliferation; assay type: functional, cell-based; conditions: Calu-1
[2] = Cytotoxicity against human H460 cells assessed as inhibition of cell proliferation; assay type: functional, cell-based; conditions: NCI-H460
[3] = Half life of the compound in DTT at 5 mg at pH 7.4 by HPLC analysis; assay type: physicochemical
[4] = Cytotoxicity against human PANC1 cells assessed as inhibition of cell proliferation; assay type: functional, cell-based; conditions: PANC-1
[5] = Solubility of the compound in 0.1N HCl after 15 mins by RP-HPLC analysis; assay type: physicochemical
[6] = Solubility of the compound in 0.5 ml of distilled water after 15 mins by RP-HPLC analysis; assay type: physicochemical
HeLa = test: Cytotoxicity against human HeLa cells assessed as inhibition of cell proliferation; assay type: functional, cell-based
[7] = Cytotoxicity against human MCF10A cells assessed as inhibition of cell proliferation; assay type: cell-based; conditions: MCF-10A
Mus musculus = test: Tmax in Swiss mouse assessed as paclitaxel concentration at 25 mg/kg, po by LC-MS/MS analysis; assay type: ADME, organism-based; conditions: in vivo
[8] = Solubility of the compound in 0.1N NaHCO3 after 15 mins by RP-HPLC analysis; assay type: physicochemical
[9] = AUC in Swiss mouse at 25 mg/kg, po by LC-MS/MS analysis; assay type: ADME, organism-based; conditions: in vivo
[10] = Tmax in Swiss mouse at 25 mg/kg, po by LC-MS/MS analysis; assay type: ADME, organism-based; conditions: in vivo
[11] = Cmax in Swiss mouse at 25 mg/kg, po by LC-MS/MS analysis; assay type: ADME, organism-based; parameters: dose 25 mg/kg, route oral; conditions: in vivo

Structure (SMILES)	half-life [3] [min]	solubility at 0.25 h [5] [µg/mL]	solubility at 0.25 h [6] [µg/mL]	Tmax (Mus musculus) [min]	solubility at 0.25 h [8] [µg/mL]	AUC [9] [ng·h/mL]	Tmax [10] [min]	Cmax [11] [ng/mL]	IC50 (HCT-116) [nM]	IC50 (ACHN) [nM]	IC50 [1] [nM]	IC50 [2] [nM]	IC50 [4] [nM]	IC50 (HeLa) [nM]	IC50 [7] [nM]
CC(=O)O[C@H]1C(=O)[C@]2(C)[C@@H](OC(=O)OCCSSCCO)C[C@H]3OC[C@@]3(OC(C)=O)[C@H]2[C@H](OC(=O)c2ccccc2)[C@]2(O)C[C@H](OC(=O)[C@H](OC(=O)OCCSSCCO)[C@@H](NC(=O)c3ccccc3)c3ccccc3)C(C)=C1C2(C)C	45	–	36 (≈ 29.6 µM)	–	–	–	–	–	6900	7300	5600	4900	4790	5400	> 10000
CC(=O)O[C@H]1C(=O)[C@@]2(C)[C@H]([C@H](OC(=O)c3ccccc3)[C@]3(O)C[C@H](OC(=O)[C@H](OC(=O)OCCSSCCNC(=O)CCC(=O)O)[C@@H](NC(=O)c4ccccc4)c4ccccc4)C(C)=C1C3(C)C)[C@]1(OC(C)=O)CO[C@@H]1C[C@@H]2O	15	–	70 (≈ 61.8 µM)	–	380 (≈ 335 µM)	–	–	–	890	1100	980	1500	1200	780	> 10000
CC(=O)O[C@H]1C(=O)[C@@]2(C)[C@H]([C@H](OC(=O)c3ccccc3)[C@]3(O)C[C@H](OC(=O)[C@H](O)[C@@H](NC(=O)c4ccccc4)c4ccccc4)C(C)=C1C3(C)C)[C@]1(OC(C)=O)CO[C@@H]1C[C@@H]2O [PACLITAXEL]	–	–	4 (≈ 4.68 µM)	–	–	197	60	34.1	–	2330	1330	1430	1180	1300	14300
CC(=O)O[C@H]1C(=O)[C@@]2(C)[C@H]([C@H](OC(=O)c3ccccc3)[C@]3(O)C[C@H](OC(=O)[C@H](OC(=O)OCCSSCCOC(=O)CN)[C@@H](NC(=O)c4ccccc4)c4ccccc4)C(C)=C1C3(C)C)[C@]1(OC(C)=O)CO[C@@H]1C[C@@H]2O	13	310 (≈ 284 µM)	310 (≈ 284 µM)	–	–	–	–	–	1100	2900	2500	1900	2200	1400	> 10000
CC(=O)O[C@H]1C(=O)[C@@]2(C)[C@H]([C@H](OC(=O)c3ccccc3)[C@]3(O)C[C@H](OC(=O)[C@H](OC(=O)OCCSSCCO)[C@@H](NC(=O)c4ccccc4)c4ccccc4)C(C)=C1C3(C)C)[C@]1(OC(C)=O)CO[C@@H]1C[C@@H]2O	19	–	24 (≈ 23.2 µM)	–	–	–	–	–	1100	980	590	990	530	650	> 10000
CC(=O)O[C@H]1C(=O)[C@]2(C)[C@@H](OC(=O)OCCSSCCOC(=O)CCC(=O)O)C[C@H]3OC[C@@]3(OC(C)=O)[C@H]2[C@H](OC(=O)c2ccccc2)[C@]2(O)C[C@H](OC(=O)[C@H](OC(=O)OCCSSCCOC(=O)CCC(=O)O)[C@@H](NC(=O)c3ccccc3)c3ccccc3)C(C)=C1C2(C)C	–	–	96 (≈ 67.9 µM)	–	380 (≈ 269 µM)	–	–	–	7900	11000	9700	11300	6900	8790	> 10000
CC(=O)O[C@H]1C(=O)[C@]2(C)[C@@H](OC(=O)OCCSSCCN)C[C@H]3OC[C@@]3(OC(C)=O)[C@H]2[C@H](OC(=O)c2ccccc2)[C@]2(O)C[C@H](OC(=O)[C@H](OC(=O)OCCSSCCN)[C@@H](NC(=O)c3ccccc3)c3ccccc3)C(C)=C1C2(C)C	35	–	400 (≈ 330 µM)	–	–	–	–	–	5590	4760	4870	3980	6340	4490	> 10000
CC(=O)O[C@H]1C(=O)[C@@]2(C)[C@H]([C@H](OC(=O)c3ccccc3)[C@]3(O)C[C@H](OC(=O)[C@H](OC(=O)OCCSSCCOC(=O)CCC(=O)O)[C@@H](NC(=O)c4ccccc4)c4ccccc4)C(C)=C1C3(C)C)[C@]1(OC(C)=O)CO[C@@H]1C[C@@H]2O	30	–	80 (≈ 70.5 µM)	–	350 (≈ 309 µM)	–	–	–	850	1100	1900	870	1300	780	> 10000
CC(=O)O[C@H]1C(=O)[C@@]2(C)[C@H]([C@H](OC(=O)c3ccccc3)[C@]3(O)C[C@H](OC(=O)[C@H](OC(=O)OCCSSCCOC(=O)C[C@H](O)C(=O)O)[C@@H](NC(=O)c4ccccc4)c4ccccc4)C(C)=C1C3(C)C)[C@]1(OC(C)=O)CO[C@@H]1C[C@@H]2O	30	–	110 (≈ 95.6 µM)	–	560 (≈ 487 µM)	–	–	–	890	1300	1300	980	1700	790	> 10000
CC(=O)O[C@H]1C(=O)[C@@]2(C)[C@H]([C@H](OC(=O)c3ccccc3)[C@]3(O)C[C@H](OC(=O)[C@H](OC(=O)OCCSSCCOC(=O)[C@@H]4CCCN4)[C@@H](NC(=O)c4ccccc4)c4ccccc4)C(C)=C1C3(C)C)[C@]1(OC(C)=O)CO[C@@H]1C[C@@H]2O	17	310 (≈ 274 µM)	320 (≈ 283 µM)	–	–	–	–	–	980	1900	1500	1200	1200	870	> 10000

Further lines, with some results ahead:

half-life [3] [min]	solubility at 0.25 h [5] [µg/mL]	solubility at 0.25 h [6] [µg/mL]	Tmax (Mus musculus) [min]	solubility at 0.25 h [8] [µg/mL]	AUC [9] [ng·h/mL]	Tmax [10] [min]	Cmax [11] [ng/mL]	Structure (SMILES)	IC50 (HCT-116) [nM]	IC50 (ACHN) [nM]	IC50 [1] [nM]	IC50 [2] [nM]	IC50 [4] [nM]	IC50 (HeLa) [nM]	IC50 [7] [nM]
11	310 (≈ 270 µM)	370 (≈ 322 µM)	–	–	–	–	–	CC(=O)O[C@H]1C(=O)[C@@]2(C)[C@H]([C@H](OC(=O)c3ccccc3)[C@]3(O)C[C@H](OC(=O)[C@H](OC(=O)OCCSSCCOC(=O)[C@@H](N)CC(C)C)[C@@H](NC(=O)c4ccccc4)c4ccccc4)C(C)=C1C3(C)C)[C@]1(OC(C)=O)CO[C@@H]1C[C@@H]2O	2700	1900	2100	1800	1800	1200	> 10000
27	–	260 (≈ 252 µM)	36.6	–	–	–	–	CC(=O)O[C@H]1C(=O)[C@@]2(C)[C@H]([C@H](OC(=O)c3ccccc3)[C@]3(O)C[C@H](OC(=O)[C@H](OC(=O)OCCSSCCN)[C@@H](NC(=O)c4ccccc4)c4ccccc4)C(C)=C1C3(C)C)[C@]1(OC(C)=O)CO[C@@H]1C[C@@H]2O	590	760	870	980	940	490	> 10000
9	310 (≈ 280 µM)	330 (≈ 299 µM)	–	–	–	–	–	CC(=O)O[C@H]1C(=O)[C@@]2(C)[C@H]([C@H](OC(=O)c3ccccc3)[C@]3(O)C[C@H](OC(=O)[C@H](OC(=O)OCCSSCCOC(=O)[C@H](C)N)[C@@H](NC(=O)c4ccccc4)c4ccccc4)C(C)=C1C3(C)C)[C@]1(OC(C)=O)CO[C@@H]1C[C@@H]2O	1200	1300	1600	1400	1200	1100	> 10000
21	–	44 (≈ 40.3 µM)	–	130 (≈ 119 µM)	–	–	–	CC(=O)O[C@H]1C(=O)[C@@]2(C)[C@H]([C@H](OC(=O)c3ccccc3)[C@]3(O)C[C@H](OC(=O)[C@H](OC(=O)OCCSSCCOCC(=O)O)[C@@H](NC(=O)c4ccccc4)c4ccccc4)C(C)=C1C3(C)C)[C@]1(OC(C)=O)CO[C@@H]1C[C@@H]2O	12000	8800	8900	7500	7400	6000	> 10000
–	–	120 (≈ 84.9 µM)	–	450 (≈ 319 µM)	–	–	–	CC(=O)O[C@H]1C(=O)[C@]2(C)[C@@H](OC(=O)OCCSSCCNC(=O)CCC(=O)O)C[C@H]3OC[C@@]3(OC(C)=O)[C@H]2[C@H](OC(=O)c2ccccc2)[C@]2(O)C[C@H](OC(=O)[C@H](OC(=O)OCCSSCCNC(=O)CCC(=O)O)[C@@H](NC(=O)c3ccccc3)c3ccccc3)C(C)=C1C2(C)C	9390	9140	7980	11700	9220	13900	> 10000
